Laboratory results published in US20160367502A1, “FILM COATED PELLETS” (RATIOPHARM GMBH, priority 2012, published 2016).
Like-named read-outs stand apart in the source and are kept apart here.

Test: Solubility in water at 25° C.
Assay type: physicochemical
Method: If it is not known, it can be determined by conventional methods. […] The amount or concentration of the active pharmaceutical ingredient in the solution is determined by analytical techniques known in the art.

[1] = sitagliptin salts, water, 25° C.

N[C@@H](CC(=O)N1CCn2c(nnc2C(F)(F)F)C1)Cc1cc(F)c(F)cc1F.O=C[C@H](O)[C@@H](O)[C@H](O)[C@H](O)C(=O)O [D-Glucuronate, sitagliptin D-glucuronate]
Solubility of sitagliptin salts in water at 25° C. [1]: >500 mg/mL

N[C@@H](CC(=O)N1CCn2c(nnc2C(F)(F)F)C1)Cc1cc(F)c(F)cc1F.O=P(O)(O)O [Dihydrogen phosphate, sitagliptin dihydrogen phosphate]
Solubility of sitagliptin salts in water at 25° C. [1]: 100 to 120 mg/mL

sitagliptin glutarate
Solubility of sitagliptin salts in water at 25° C.: >500 mg/mL
